In patent publication US8791143B2, “Anthranilic diamide derivatives having cyclic side-chains” (priority 2010, dated 2014):
Like-named read-outs stand apart in the source and are kept apart here.

Columns and labels:
[1] = tested on: larvae of the mustard beetle (Phaedon cochleariae); assay: Phaedon test (PHAECO spray treatment); settings: Phaedon cochleariae, 168 h, read-out: activity in % (beetle larvae killed)
[2] = log P by HPLC on reversed-phase columns (EEC Directive 79/831 Annex V.A8); assay type: physicochemical
adult Musca domestica = assay: Musca domestica test (MUSCDO); assay type: in vivo; settings: 1152 h, read-out: activity (kill in %)
Protocol: (§1) Solvent: dimethyl sulphoxide
Vessels containing a sponge treated with the active compound preparation of the desired concentration are populated with adult Musca domestica.
(§2) After 48 days, the kill in % is determined.

Boophilus microplus = Boophilus microplus test (BOOPMI injection); assay type: in vivo; settings: Rhipicephalus microplus, 168 h; 20 μg/animal, injection into the abdomen, after 7 days; read-out: activity in % (no fertile eggs laid)
Protocol: as §1
The active compound solution is injected into the abdomen (Boophilus microplus), and the animals are transferred into dishes and stored in a climate-controlled room.
The activity is assessed by […] of fertile eggs. 100% means that none of the ticks has laid any fertile eggs.

Lucilia cuprina larvae = assay: Lucilia cuprina test (LUCICU); assay type: in vivo; settings: 1152 h, read-out: activity (kill in %)
Protocol: as §1
Vessels containing horse meat treated with the active ingredient preparation of the desired concentration are populated with about 20 Lucilia cuprina larvae.
as §2

[3] = tested on: green peach aphid (Myzus persicae); assay: Myzus test (MYZUPE spray treatment); assay type: in vivo; settings: Myzus persicae, 144 h, read-out: activity in % (aphids killed)
[4] = tested on: caterpillars of the armyworm (Spodoptera frugiperda); assay: Spodoptera frugiperda test (SPODFR spray treatment); assay type: in vivo; settings: Spodoptera frugiperda, 168 h, read-out: activity in % (caterpillars killed)
[5] = reversed-phase C18 HPLC column, pH 2.7, HPLC reversed-phase C18, acidic range pH 2.7 (HCOOH), only or first value of the cell, read-out: log P
[6] = application rate 100 g/ha, after 6 days
[7] = application rate 100 g/ha, after 7 days

| chromatographic logP [2, 5] | SMILES | pest or weed control at 500 g/ha [1] | pest or weed control at 100 ppm (adult Musca domestica; 100 ppm, after 48 days) | pest or weed control at 0.02 mg (Boophilus microplus) | pest or weed control at 100 ppm (Lucilia cuprina larvae; 100 ppm, after 48 days) | pest or weed control at 500 g/ha ([3]; application rate 500 g/ha, after 6 days) | pest or weed control at 500 g/ha ([4]; application rate 500 g/ha, after 7 days) | pest or weed control at 100 g/ha [1] | log P (second value after the slash) ([2]; pH 2.7) | chromatographic logP ([2]; pH 2.7, log P) | pest or weed control at 100 ppm (adult Musca domestica) | pest or weed control at 100 ppm (Lucilia cuprina larvae) | pest or weed control at 100 g/ha [3] | pest or weed control at 100 g/ha [4] | pest or weed control at 100 g/ha [3, 6] | pest or weed control at 100 g/ha [4, 7] | pest or weed control at 20 ppm (adult Musca domestica; 20 ppm, after 48 days) |
| --- | --- | --- | --- | --- | --- | --- | --- | --- | --- | --- | --- | --- | --- | --- | --- | --- | --- |
| 2.82 | Cc1cc(C#N)cc(C(=O)NC2CCS(=O)(=O)C2)c1NC(=O)c1cc(Cn2nnc(C(F)(F)C(F)(F)F)n2)nn1-c1ncccc1Cl (centres unmarked) [Example 38] | 100% | 100% | 100% | 100% | 100% | 100% | – | – | – | – | – | – | – | – | – | – |
| – | Cc1cc(Cl)cc(C(=O)N[C@@H]2CCOC2=O)c1NC(=O)c1cc(Cn2nnc(C(F)(F)F)n2)nn1-c1ncccc1Cl [Example 42] | – | – | 100% | – | – | – | 100% | 2.53 | 2.84 | 90% | 100% | 100% | 100% | – | – | – |
| 2.9 | Cc1cc(C#N)cc(C(=O)N[C@@H]2CCOC2=O)c1NC(=O)c1cc(Cn2nnc(C(F)(F)C(F)(F)F)n2)nn1-c1ncccc1Cl [Example 44] | – | 100% | 100% | 100% | – | – | 100% | – | – | – | – | – | – | 90% | 100% | – |
| 3.97 | Cc1cc(C#N)cc(C(=O)NC2(c3cccc(C(F)(F)F)c3)CC2)c1NC(=O)c1cc(Cn2nnc(C(F)(F)F)n2)nn1-c1ncccc1Cl [Example 65] | – | – | 100% | 100% | – | – | 100% | – | – | – | – | – | – | 90% | 100% | 80% |
